Publication PMC3867298 (Clinical cancer research : an official journal of the …, 2010)
Marks after values point to notes of the source that are not given here.

How the values were obtained:
phosphohistone H3 (pHH3) = test: Histone H3 phosphorylation in keratinocytes; assay type: in vivo, human; details: 9 paired skin biopsies at MTD, cycle 1 day 28
[1] = Plasma pharmacokinetics in patients; assay type: in vivo, human; details: for AUC(0-inf) / Cmax / Tmax / half-life / Vd/F: human, plasma, oral; for Vd/F: 160 mg/m2, Vd/F
[2] = system: H929 human plasmacytoma xenografts; details: vs vehicle; cited from earlier work
[3] = system: patients with advanced solid tumors
[4] = day 1, 160 mg/m^2, n=8, mean ± SD
[5] = day 28, 160 mg/m^2, n=5, mean ± SD
[6] = cohort 1, 60 mg/m^2, 7 patients

Structure (SMILES): Cc1cc(Nc2cc(N3CCN(C)CC3)nc(/C=C/c3ccccc3)n2)n[nH]1 [ENMD-2076]
- Paired biopsies in which pHH3-positive cells decreased posttreatment (phosphohistone H3 (pHH3)): 3 samples
- Paired biopsies in which pHH3-positive cells increased (phosphohistone H3 (pHH3)): 2 samples
- Paired biopsies in which pHH3-positive cells remained the same (phosphohistone H3 (pHH3)): 4 samples
- CL/F ([1]; day 1, 60 mg/m^2, n=6, mean ± SD): 37.9 ± 19.3 L/h
- CL/F ([1]; day 1, 80 mg/m^2, n=4, mean ± SD): 45.9 ± 13.0 L/h
- CL/F ([1]; day 1, 120 mg/m^2, n=3, mean ± SD): 64.3 ± 16.9 L/h
- CL/F [1, 4]: 52.9 ± 18.4 L/h
- CL/F ([1]; day 1, 200 mg/m^2, n=5, mean ± SD): 41.5 ± 13.3 L/h
- CL/F ([1]; day 1, 350 mg/m^2, n=2, mean ± SD): 55.2 ± 12.9 L/h
- CL/F ([1]; day 28, 60 mg/m^2, n=6, mean ± SD): 10.4 ± 7.9 L/h
- CL/F ([1]; day 28, 80 mg/m^2, n=3, mean ± SD): 10.8 ± 3.3 L/h
- CL/F ([1]; day 28, 120 mg/m^2, n=3, mean ± SD): 13.0 ± 1.4 L/h
- CL/F [1, 5]: 9.1 ± 2.9 L/h
- CL/F ([1]; day 28, 200 mg/m^2, n=4, mean ± SD): 14.0 ± 4.7 L/h
- AUC(0-inf) ([1]; 60 mg/m2, AUC(0-inf), day 1, 60 mg/m^2, n=6, mean ± SD): 3160 ± 1340 ng·h/mL
- AUC(0-inf) ([1]; 60 mg/m2, AUC(0-inf), day 28, 60 mg/m^2, n=6, mean ± SD): 15300 ± 8910 ng·h/mL
- Cmax ([1]; 60 mg/m2, Cmax, day 1, 60 mg/m^2, n=6, mean ± SD): 64 ± 23 ng/mL
- Cmax ([1]; 60 mg/m2, Cmax, day 28, 60 mg/m^2, n=6, mean ± SD): 218 ± 95 ng/mL
- Tmax ([1]; 60 mg/m2, Tmax, day 1, 60 mg/m^2, n=6, mean ± SD): 7.8 ± 7.8 h
- Tmax ([1]; 60 mg/m2, Tmax, day 28, 60 mg/m^2, n=6, mean ± SD): 4.7 ± 3 h
- half-life ([1]; 60 mg/m2, t1/2, day 1, 60 mg/m^2, n=6, mean ± SD): 36.4 ± 19.3 h
- half-life ([1]; 60 mg/m2, t1/2, day 28, 60 mg/m^2, n=6, mean ± SD): 53.1 ± 20.4 h
- AUC(0-inf) ([1]; 80 mg/m2, AUC(0-inf), day 1, 80 mg/m^2, n=4, mean ± SD): 3850 ± 1600 ng·h/mL
- AUC(0-inf) ([1]; 80 mg/m2, AUC(0-inf), day 28, 80 mg/m^2, n=3, mean ± SD): 14700 ± 3780 ng·h/mL
- Cmax ([1]; 80 mg/m2, Cmax, day 1, 80 mg/m^2, n=4, mean ± SD): 101 ± 59 ng/mL
- Cmax ([1]; 80 mg/m2, Cmax, day 28, 80 mg/m^2, n=3, mean ± SD): 233 ± 76 ng/mL
- Tmax ([1]; 80 mg/m2, Tmax, day 1, 80 mg/m^2, n=4, mean ± SD): 4 ± 1.6 h
- Tmax ([1]; 80 mg/m2, Tmax, day 28, 80 mg/m^2, n=3, mean ± SD): 3.4 ± 1.2 h
- half-life ([1]; 80 mg/m2, t1/2, day 1, 80 mg/m^2, n=4, mean ± SD): 31.8 ± 7.6 h
- half-life ([1]; 80 mg/m2, t1/2, day 28, 80 mg/m^2, n=3, mean ± SD): 51 ± 18.7 h
- AUC(0-inf) ([1]; 120 mg/m2, AUC(0-inf), day 1, 120 mg/m^2, n=3, mean ± SD): 3590 ± 1260 ng·h/mL
- AUC(0-inf) ([1]; 120 mg/m2, AUC(0-inf), day 28, 120 mg/m^2, n=3, mean ± SD): 16700 ± 1120 ng·h/mL
- Cmax ([1]; 120 mg/m2, Cmax, day 1, 120 mg/m^2, n=3, mean ± SD): 93 ± 14 ng/mL
- Cmax ([1]; 120 mg/m2, Cmax, day 28, 120 mg/m^2, n=3, mean ± SD): 314 ± 73 ng/mL
- Tmax ([1]; 120 mg/m2, Tmax, day 1, 120 mg/m^2, n=3, mean ± SD): 6 ± 3.5 h
- Tmax ([1]; 120 mg/m2, Tmax, day 28, 120 mg/m^2, n=3, mean ± SD): 2.7 ± 3.2 h
- half-life ([1]; 120 mg/m2, t1/2, day 1, 120 mg/m^2, n=3, mean ± SD): 27.3 ± 5.8 h
- half-life ([1]; 120 mg/m2, t1/2, day 28, 120 mg/m^2, n=3, mean ± SD): 44.9 ± 8.6 h
- AUC(0-inf) ([1]; 160 mg/m2, AUC(0-inf), day 1, 160 mg/m^2, n=8, mean ± SD): 5940 ± 2410 ng·h/mL
- AUC(0-inf) ([1]; 160 mg/m2, AUC(0-inf), day 28, 160 mg/m^2, n=5, mean ± SD): 34600 ± 16500 ng·h/mL
- Cmax ([1]; 160 mg/m2, Cmax, day 1, 160 mg/m^2, n=8, mean ± SD): 157 ± 52 ng/mL
- Cmax ([1]; 160 mg/m2, Cmax, day 28, 160 mg/m^2, n=5, mean ± SD): 558 ± 222 ng/mL
- Tmax ([1]; 160 mg/m2, Tmax, day 1, 160 mg/m^2, n=8, mean ± SD): 3.5 ± 1.4 h
- Tmax ([1]; 160 mg/m2, Tmax, day 28, 160 mg/m^2, n=5, mean ± SD): 4.4 ± 2.1 h
- Vd/F [1, 4]: 2020 ± 388 L
- Vd/F [1, 5]: 600 ± 229 L
- half-life ([1]; 160 mg/m2, t1/2, day 1, 160 mg/m^2, n=8, mean ± SD): 28.6 ± 8.4 h
- half-life ([1]; 160 mg/m2, t1/2, day 28, 160 mg/m^2, n=5, mean ± SD): 46.1 ± 9.5 h
- AUC(0-inf) ([1]; 200 mg/m2, AUC(0-inf), day 1, 200 mg/m^2, n=5, mean ± SD): 10600 ± 4900 ng·h/mL
- AUC(0-inf) ([1]; 200 mg/m2, AUC(0-inf), day 28, 200 mg/m^2, n=4, mean ± SD): 34500 ± 18300 ng·h/mL
- Cmax ([1]; 200 mg/m2, Cmax, day 1, 200 mg/m^2, n=5, mean ± SD): 229 ± 65 ng/mL
- Cmax ([1]; 200 mg/m2, Cmax, day 28, 200 mg/m^2, n=4, mean ± SD): 557 ± 191 ng/mL
- Tmax ([1]; 200 mg/m2, Tmax, day 1, 200 mg/m^2, n=5, mean ± SD): 4 ± 2.4 h
- Tmax ([1]; 200 mg/m2, Tmax, day 28, 200 mg/m^2, n=4, mean ± SD): 4.5 ± 2.5 h
- half-life ([1]; 200 mg/m2, t1/2, day 1, 200 mg/m^2, n=5, mean ± SD): 38.3 ± 10 h
- half-life ([1]; 200 mg/m2, t1/2, day 28, 200 mg/m^2, n=4, mean ± SD): 47.6 ± 12.7 h
- AUC(0-inf) ([1]; 350 mg/m2, AUC(0-inf), day 1, 350 mg/m^2, n=2, mean ± SD): 12200 ± 5100 ng·h/mL
- Cmax ([1]; 350 mg/m2, Cmax, day 1, 350 mg/m^2, n=2, mean ± SD): 300 ± 18 ng/mL
- Tmax ([1]; 350 mg/m2, Tmax, day 1, 350 mg/m^2, n=2, mean ± SD): 3 ± 1.4 h
- half-life ([1]; 350 mg/m2, t1/2, day 1, 350 mg/m^2, n=2, mean ± SD): 31.1 ± 14.4 h
- half-life ([1]; Mean terminal phase elimination half-life (t1/2), range, after a single dose): 27.3 to 38.3 h
- Tmax ([1]; Tmax, range over all dose levels, day 28): 2.7 to 4.7 h
- Tumor growth [2]: Dose-dependent inhibition of tumor growth
- Patients with grade 3 neutropenia requiring dose delay and reduction ([3]; 200 mg/m^2, 3 of 7): 43%
- Patients with neutropenia ([3]; 200 mg/m^2 during dose escalation, 4 of 7): 57%
- Rate of grade ≥ 3 neutropenia ([3]; 46 patients treated at 160 mg/m^2 (2/46)): 4%
- Rate of grade ≥ 3 fatigue ([3]; 46 patients treated at 160 mg/m^2 (3/46)): 7%
- Rate of grade ≥ 3 hypertension ([3]; 46 patients treated at 160 mg/m^2 (11/46)): 24%
- Patients with adverse events meeting DLT criteria ([3]; MTD expansion, 12/38, 16 events): 32%
- Patients requiring dose reduction ([3]; MTD expansion, 14/38): 37%
- Patients with dose delays ([3]; MTD expansion, 24/38): 63%
- Adrenal insufficiency ([3]; all patients): not observed
- Patients requiring dose reduction due to toxicity ([3]; at the MTD of 160 mg/m^2): 33%
- Patients with hypothyroidism ([3]; both in the expanded 160 mg/m^2 cohort): 2 patients
- No. of patients with DLT (cycle 1) [3, 6]: 1 ^†
- No. of patients with dose delays [3, 6]: 2 (29%)
